The results in this text go back to paper PMC2716805, “Canine Plasminogen: Spectral Responses to Changes in 6-Aminohexanoate and Temperature” (2007).

The assay concerns the target T1, canine plasminogen (DPGN) (Canis lupus, UniProt P80009).
T1 construct: gene PLG; intact plasminogen purified from dog blood (samples showing conversion to lys-plasminogen or plasmin discarded)
Briefly: titration followed by 4th derivative near-UV absorption spectroscopy (R-values). In kind it is binding.

The Kd is a measure of binding affinity in units of concentration. A higher Kd goes with lower affinity.

SMILES strings stand for the structures.

T1 sequence (P80009 with tags, fused parts or gaps): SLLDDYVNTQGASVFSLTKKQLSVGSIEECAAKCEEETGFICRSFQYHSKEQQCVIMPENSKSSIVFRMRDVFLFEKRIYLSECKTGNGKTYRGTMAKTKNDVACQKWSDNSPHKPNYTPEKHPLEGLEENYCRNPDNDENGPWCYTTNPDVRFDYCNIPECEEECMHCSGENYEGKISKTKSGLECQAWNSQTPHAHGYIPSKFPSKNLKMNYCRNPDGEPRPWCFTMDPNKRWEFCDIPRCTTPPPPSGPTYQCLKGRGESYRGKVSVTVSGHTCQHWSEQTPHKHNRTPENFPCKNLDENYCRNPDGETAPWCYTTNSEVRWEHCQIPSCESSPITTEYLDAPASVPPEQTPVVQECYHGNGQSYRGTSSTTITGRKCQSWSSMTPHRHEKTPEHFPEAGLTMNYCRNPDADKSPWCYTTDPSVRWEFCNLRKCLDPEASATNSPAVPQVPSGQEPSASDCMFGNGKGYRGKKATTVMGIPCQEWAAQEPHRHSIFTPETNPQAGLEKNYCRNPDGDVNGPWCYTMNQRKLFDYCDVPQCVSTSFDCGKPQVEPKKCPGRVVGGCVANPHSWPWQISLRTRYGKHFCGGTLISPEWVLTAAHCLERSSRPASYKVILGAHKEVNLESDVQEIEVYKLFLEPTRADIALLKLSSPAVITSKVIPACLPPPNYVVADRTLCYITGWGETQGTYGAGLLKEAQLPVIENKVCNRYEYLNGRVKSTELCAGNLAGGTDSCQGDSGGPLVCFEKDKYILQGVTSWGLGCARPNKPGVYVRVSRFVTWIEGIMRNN

`NCCCCCC(=O)O` [6-AH, 6-aminohexanoate] came in with a dissociation constant Kd of roughly 1 µM.
